Data taken from ChEMBL document CHEMBL3045534, “Synthesis and Acaricidal Activity of N-(1,3,4-Thiadiazol-2-yl)carboxamides” (2003).

Legend:
Type in all cases: functional
[1] = tested on: Tetranychus urticae; assay: Acaricidal activity against Tetranychus urticae (two-spotted spider mite) assessed as mite mortality at 500 ppm relative to untreated control
[2] = tested on: Tetranychus urticae; assay: Acaricidal activity against Tetranychus urticae (two-spotted spider mite) assessed as mite mortality at 200 ppm relative to untreated control
[3] = tested on: Tetranychus urticae; assay: Acaricidal activity against Tetranychus urticae (two-spotted spider mite) assessed as mite mortality at 50 ppm relative to untreated control
[4] = tested on: Tetranychus urticae; assay: Acaricidal activity against Tetranychus urticae (two-spotted spider mite) assessed as mite mortality at 12.5 ppm relative to untreated control
[5] = tested on: Tetranychus urticae; assay: Acaricidal activity against Tetranychus urticae (two-spotted spider mite) assessed as mite mortality at 3.13 ppm relative to untreated control

SMILES	mortality at 500 ppm [1]	mortality at 200 ppm [2]	mortality at 50 ppm [3]	mortality at 12.5 ppm [4]	mortality at 3.13 ppm [5]
CC(C)(C)CC(=O)Nc1nnc(C(F)(F)F)s1	0%				
CC(CC(Br)C(=O)Nc1nnc(C(F)(F)F)s1)C1CCCCC1 (stereo not given)	30%	0%			
O=C(CBr)Nc1nnc(C(F)(F)F)s1	0%				
CCC(C)C(Br)C(=O)Nc1nnc(C(F)(F)F)s1 (stereo not given)	100%	100%	80%	30%	
CC(C)(C)C(Br)C(=O)Nc1nnc(C(F)(F)C(F)(F)C(F)(F)C(F)(F)F)s1 (stereo not given)	0%				
CCCC(Br)C(=O)Nc1nnc(C(F)(F)F)s1 (stereo not given)	30%	0%			
CC(C)(C)C(Br)(Br)C(=O)Nc1nnc(C(F)(F)C(F)(F)C(F)(F)C(F)(F)F)s1	100%	100%	100%	30%	
O=C(Nc1nnc(C(F)(F)F)s1)C(Br)C1CCCC1 (stereo not given)	30%	0%			
Cc1nnc(NC(=O)C(Br)C(C)(C)C)s1 (stereo not given)	0%				
CC(C)(C)C(Br)(Br)C(=O)Nc1nnc(C(F)(F)C(F)(F)F)s1	100%	100%	100%	80%	30%
CC(C)(C)C(Br)C(=O)Nc1nnc(C(F)(F)F)s1 (stereo not given)	100%	100%	100%	30%	
CC(C)(C)C(Br)C(=O)Nc1nnc(C(F)(F)C(F)(F)F)s1 (stereo not given)	100%	80%	80%	30%	
CC(Br)C(=O)Nc1nnc(C(F)(F)F)s1 (stereo not given)	0%				
CCc1nnc(NC(=O)C(Br)C(C)(C)C)s1 (stereo not given)	0%				
CC(C)(C)C(Br)C(=O)Nc1nnc(C(F)(F)C(F)(F)C(F)(F)C(F)(F)C(F)(F)F)s1 (stereo not given)	0%				
CC(C)(C)C(Cl)C(=O)Nc1nnc(C(F)(F)F)s1 (stereo not given)	100%	100%	100%	30%	
CC(C)(C)C(Br)(Br)C(=O)Nc1nnc(C(F)(F)C(F)(F)C(F)(F)F)s1	100%	100%	80%	0%	
CCC(Br)C(=O)Nc1nnc(C(F)(F)F)s1 (stereo not given)	0%				
CC(C)C(Br)C(=O)Nc1nnc(C(F)(F)F)s1 (stereo not given)	100%	30%			
CCCCCC(Br)C(=O)Nc1nnc(C(F)(F)F)s1 (stereo not given)	80%	80%	30%	0%	
CC(C)(C)C(Br)C(=O)Nc1nncs1 (stereo not given)	0%				
CC(C)(C)C(Br)(Br)C(=O)Nc1nnc(C(F)(F)F)s1	100%	100%	100%	30%	
CC(C)CC(Br)C(=O)Nc1nnc(C(F)(F)F)s1 (stereo not given)	0%				
CCCCC(Br)C(=O)Nc1nnc(C(F)(F)F)s1 (stereo not given)	0%				
CC(C)(C)C(Br)C(=O)Nc1nnc(C(F)(F)C(F)(F)C(F)(F)F)s1 (stereo not given)	80%	30%	30%	30%	
